Several values for one entry are separate records, joined by “and”; a condition that tells them apart may be missing. Equal values may be shown once.
Columns and labels:
[1] = Residual solvent by gas chromatography (internal standard method); format: physicochemical; conditions: Chinese Pharmacopoeia limit 0.5%
Experimental: […]; an appropriate amount of ethyl acetate was taken, weighed precisely, and N,N-dimethylformamide was added to prepare the solution containing 5 mg of ethyl acetate per 1 ml. 1 ml of the solution was accurately pipetted into a 10 ml volumetric flask, and 1 ml of the internal standard solution was precisely added, and diluted by adding N,N-dimethylformamide to the volume, and agitated to obtain the reference solution; 0.5 g of the chlorogenic acid crystal form prepared by Examples 1 and 2, and about 0.5 g of respective raw materials of each example, were taken and weighed precisely, then transferred to a 10 ml volumetric flask. 1 ml of the internal standard solution was added precisely, diluted with N,N-dimethylformamide to volume, and agitated, to obtain the testing solution. According to the gas chromatography method (the appendix V E of the second part of the Chinese Pharmacopoeia 2010), 30 m capillary column was used with 50% polyphenyl methylsiloxane as the stationary liquid, and its coating thickness was 1 μm. The column temperature was kept at 80° C. taking 1 μl of the reference solution and 1 μl of the testing solution were accurately taken, respectively, and injected into the gas chromatograph, to record the chromatogram. Calculating with the height ratio of peaks in accordance with internal standard method, the results are as follows: […]

[2] = Long-term stability test of chlorogenic acid crystal form; format: physicochemical
[3] = 0-48 months, 18±2° C., relative humidity 60±10%
[4] = 0 month, 18±2° C., relative humidity 60±10%
[5] = 3 months, 18±2° C., relative humidity 60±10%
[6] = 6 months, 18±2° C., relative humidity 60±10%
[7] = 9 months, 18±2° C., relative humidity 60±10%
[8] = 12 months, 18±2° C., relative humidity 60±10%
[9] = 18 months, 18±2° C., relative humidity 60±10%
[10] = 24 months, 18±2° C., relative humidity 60±10%
[11] = 36 months, 18±2° C., relative humidity 60±10%
[12] = 48 months, 18±2° C., relative humidity 60±10%

## O=C(/C=C/c1ccc(O)c(O)c1)O[C@@H]1C[C@](O)(C(=O)O)C[C@@H](O)[C@H]1O [Raw material of Example 2, 3-O-caffeoylquinnic acid]
[1]
  Residual solvent Ethyl acetate (%): 2.314%

## O=C(/C=C/c1ccc(O)c(O)c1)O[C@@H]1C[C@](O)(C(=O)O)C[C@@H](O)[C@H]1O [Raw material of Example 1, 3-O-caffeoylquinnic acid]
[1]
  Residual solvent Ethyl acetate (%): 1.764%

## O=C(/C=C/c1ccc(O)c(O)c1)O[C@@H]1C[C@](O)(C(=O)O)C[C@@H](O)[C@H]1O [Sample obtained in Example 2, 3-O-caffeoylquinnic acid]
[1]
  Residual solvent Ethyl acetate (%): 0.252%

## O=C(/C=C/c1ccc(O)c(O)c1)O[C@@H]1C[C@](O)(C(=O)O)C[C@@H](O)[C@H]1O [Example 1, 3-O-caffeoylquinnic acid]
[1]; listed as Sample obtained in Example 1
  Residual solvent Ethyl acetate (%): 0.254%
[2]; [3]
  Content of chlorogenic acid over the long-term stability test: above 98%
  Stability (overall conclusion of long-term test): good stability
[2]; [4]
  Appearance: almost white
  Content (%): 99.50% and 99.56% and 99.49%
  Loss on drying (%): 2.32% and 2.31% and 2.29%
  Related substances (%) Other 2: 0.140% and 0.137% and 0.144%
  Related substances (%) Other 3: 0.205% and 0.214% and 0.218%
  Related substances (%) Other 4: 0.045% and 0.049% and 0.048%
  Related substances In total (%): 0.488% and 0.499% and 0.511%
[2]; [5]
  Appearance: almost white
  Content (%): 99.47% and 99.41% and 99.43%
  Loss on drying (%): 2.30% and 2.31% and 2.29%
  Related substances (%) Other 2: 0.142% and 0.151% and 0.148%
  Related substances (%) Other 3: 0.230% and 0.237% and 0.228%
  Related substances (%) Other 4: 0.049% and 0.050% and 0.046%
  Related substances In total (%): 0.523% and 0.543% and 0.525%
[2]; [6]
  Appearance: almost white
  Content (%): 99.44% and 99.38% and 99.42%
  Loss on drying (%): 2.31% and 2.29% and 2.28%
  Related substances (%) Other 2: 0.146% and 0.154% and 0.155%
  Related substances (%) Other 3: 0.234% and 0.240% and 0.231%
  Related substances (%) Other 4: 0.054% and 0.056% and 0.053%
  Related substances In total (%): 0.541% and 0.563% and 0.548%
[2]; [7]
  Appearance: almost white
  Content (%): 99.38% and 99.30% and 99.33%
  Loss on drying (%): 2.32% and 2.31%
  Related substances (%) Other 2: 0.162% and 0.167% and 0.165%
  Related substances (%) Other 3: 0.255% and 0.261% and 0.252%
  Related substances (%) Other 4: 0.058% and 0.061% and 0.060%
  Related substances In total (%): 0.591% and 0.611% and 0.595%
[2]; [8]
  Appearance: almost white
  Content (%): 99.32% and 99.27% and 99.23%
  Loss on drying (%): 2.28% and 2.31% and 2.29%
  Related substances (%) Other 2: 0.163% and 0.168% and 0.169%
  Related substances (%) Other 3: 0.260% and 0.264% and 0.265%
  Related substances (%) Other 4: 0.062% and 0.063%
  Related substances In total (%): 0.606% and 0.623% and 0.627%
[2]; [9]
  Appearance: almost white
  Content (%): 99.18% and 99.26% and 99.24%
  Loss on drying (%): 2.30% and 2.29% and 2.28%
  Related substances (%) Other 2: 0.179% and 0.174%
  Related substances (%) Other 3: 0.279% and 0.270% and 0.272%
  Related substances (%) Other 4: 0.065% and 0.067%
  Related substances In total (%): 0.660% and 0.643% and 0.647%
[2]; [10]
  Appearance: almost white
  Content (%): 99.17% and 99.10% and 99.14%
  Loss on drying (%): 2.32% and 2.30% and 2.31%
  Related substances (%) Other 2: 0.178% and 0.187% and 0.185%
  Related substances (%) Other 3: 0.278% and 0.292% and 0.286%
  Related substances (%) Other 4: 0.070% and 0.074% and 0.072%
  Related substances In total (%): 0.666% and 0.697% and 0.685%
[2]; [11]
  Appearance: almost white
  Content (%): 99.13% and 99.05% and 99.02%
  Loss on drying (%): 2.32% and 2.31%
  Related substances (%) Other 2: 0.190% and 0.194% and 0.196%
  Related substances (%) Other 3: 0.299% and 0.301% and 0.302%
  Related substances (%) Other 4: 0.076% and 0.074% and 0.078%
  Related substances In total (%): 0.713% and 0.719% and 0.732%
[2]; [12]
  Appearance: almost white
  Content (%): 98.85% and 98.74% and 98.80%
  Loss on drying (%): 2.34% and 2.38% and 2.36%
  Related substances (%) Other 2: 0.219% and 0.222% and 0.218%
  Related substances (%) Other 3: 0.303% and 0.309% and 0.306%
  Related substances (%) Other 4: 0.092% and 0.095% and 0.091%
  Related substances In total (%): 0.770% and 0.787% and 0.772%
[2]; at the end of 12, 24, 36 and 48 months, 18±2° C., relative humidity 60±10%
  Crystal form examination by microscope: single lamellar crystal
[2]; within 48 months, stored in the cool and dark place
  Stability on storage: does not change obviously

— patent US10246401B2, “Crystalline form of chlorogenic acid and preparation method thereof” (SICHUAN JIUZHANG BIOLOGICAL SCIENCE AND TECHNOLOGY CO., LTD., priority 2014, dated 2019)
